Like-named read-outs stand apart in the source and are kept apart here.
Test system: T. brucei lysate proteins
Assay type: binding, Trypanosoma brucei

`Nc1nc2cccc(-c3ccccc3)c2n1Cc1ccc(Cl)c(Cl)c1` [compound 3] was tested, and the “fold change - vehicle control” value (protein TB927.7.5340 HY[…], CONSERVED) was 0.45, the “fold change - vehicle control” value (protein TB927.7.7430 ATP SYNTHASE ALPHA CHAIN, MIT[…]) was 0.95 and the “fold change - vehicle control” value (protein TB927.8.1990 PEROXIDOXIN) was 0.95. For the same compound, the “fold change - vehicle control” value (protein TB927.8.4720 AMINO ACID TRANSPORTER, PUTATIVE) was 0.82, the “fold change - vehicle control” value (protein TB927.8.890 SMALL GTP-BINDING PROTEIN RAB1, PUTATIVE) was 0.96 and the fold change (relative to vehicle control = 1, protein TB09.160.2550 RIBOSOMAL PROTEIN S7, PUTATIVE) was 0.97. The fold change (relative to vehicle control = 1, protein TB09.160.3270 ATP-DEPENDENT DEAD BOX HELICASE, PUTATIVE) was 1, the fold change (relative to vehicle control = 1, protein TB09.160.4250 TR[…]) was 0.95 and the fold change (relative to vehicle control = 1, protein TB09.211.3540 GLYCEROL KINASE, GLYCOSOMAL) was 0.92. For the same compound, the fold change (relative to vehicle control = 1, protein TB11.01.1270 NUCLEIC ACID BINDING PROTEIN, PUTATIVE) was 0.99, the fold change (relative to vehicle control = 1, protein TB11.02.1135 DYNEIN LIGHT CHAIN, PUTATIVE) was 1 and the fold change (relative to vehicle control = 1, protein TB11.02.2960 MIT[…] PROTEIN, PUTATIVE) was 0.96. It also gave a fold change (relative to vehicle control = 1, protein TB11.02.4700 14-3-3 PROTEIN) of 0.87, a fold change (relative to vehicle control = 1, protein TB11.03.0815 DYNEIN LIGHT CHAIN) of 0.99 and a fold change (relative to vehicle control = 1, protein TB427TMP.01.0480 HY[…], CONSERVED) of 0.95. It also gave a fold change (relative to vehicle control = 1, protein TB427TMP.01.1400 GLYCYL-TRNA SYNTHETASE, PUTATIVE) of 0.9, a fold change (relative to vehicle control = 1, protein TB427TMP.01.1680 POLYUBIQUITIN, PUTATIVE) of 0.93 and a fold change (relative to vehicle control = 1, protein TB427TMP.01.1830 HY[…], CONSERVED) of 1. For the same compound, the fold change (relative to vehicle control = 1, protein TB427TMP.01.3370 […] PROTEIN, PUTATIVE) was 0.94, the fold change (relative to vehicle control = 1, protein TB427TMP.01.6880 CYTOSOLIC COAT PROTEIN, PUTATIVE) was 0.81 and the fold change (relative to vehicle control = 1, protein TB427TMP.01.7530 HY[…], CONSERVED) was 0.93. It also gave a fold change (relative to vehicle control = 1, protein TB427TMP.02.1120 ADENYL[…], PUTATIVE) of 0.99, a fold change (relative to vehicle control = 1, protein TB427TMP.02.1460 HY[…], CONSERVED) of 0.95 and a fold change (relative to vehicle control = 1, protein TB427TMP.02.2120 NUCLEOPORIN 48) of 0.94. It also gave a fold change (relative to vehicle control = 1, protein TB427TMP.02.2970 KINESIN, PUTATIVE) of 0.91, a fold change (relative to vehicle control = 1, protein TB427TMP.02.3120 MALIC ENZYME, PUTATIVE) of 0.82 and a fold change (relative to vehicle control = 1, protein TB427TMP.02.4550 HY[…], CONSERVED) of 1. The fold change (relative to vehicle control = 1, protein TB427TMP.02.5450 GLUCOSE-REGULATED PROTEIN 78, PUTATIVE) was 0.93, the fold change (relative to vehicle control = 1, protein TB427TMP.03.0090 RIBOKINASE, PUTATIVE) was 0.84 and the fold change (relative to vehicle control = 1, protein TB427TMP.160.4770 PROTEIN KINASE, PUTATIVE) was 0.93. The fold change (relative to vehicle control = 1, protein TB427TMP.160.4910 FLAVOPROTEIN MONOOXYGENASE, PUTATIVE) was 0.97, the fold change (relative to vehicle control = 1, protein TB427TMP.18.0005 HY[…], CONSERVED) was 0.93 and the fold change (relative to vehicle control = 1, protein TB427TMP.22.0004 HY[…], CONSERVED) was 0.97. The fold change (relative to vehicle control = 1, protein TB427TMP.39.0006 T[…] EIF2B DELTA SUBUNIT, PUTATIVE) was 0.9, the fold change (relative to vehicle control = 1, protein TB427.01.4050 PROTEIN P[…] EF-HAND DOMAINS (PPEF)) was 0.93 and the fold change (relative to vehicle control = 1, protein TB427.02.1170 RETRO[…] SPOT (RHS) PROTEIN, PUTATIVE) was 0.96. For the same compound, the fold change (relative to vehicle control = 1, protein TB427.02.6220 ADENOSINE TRANSPORTER 2, PUTATIVE) was 0.98, the fold change (relative to vehicle control = 1, protein TB427.03.3160 POLY(A) POLYMERASE) was 0.77 and the fold change (relative to vehicle control = 1, protein TB427.03.3560 HY[…], CONSERVED) was 0.83. It also gave a fold change (relative to vehicle control = 1, protein TB427.03.5420 PROTEIN TRANSPORT PROTEIN SEC24) of 0.9, a fold change (relative to vehicle control = 1, protein TB427.04.1510 PHOSPHOLIPID-TRA[…], PUTATIVE) of 0.86 and a fold change (relative to vehicle control = 1, protein TB427.05.2320 HY[…], CONSERVED) of 0.8. The fold change (relative to vehicle control = 1, protein TB427.05.300 THYMINE-7-HYDROXYLASE, PUTATIVE) was 0.82, the fold change (relative to vehicle control = 1, protein TB427.05.4530 FATTY ACID ELONGASE, PUTATIVE) was 0.77 and the fold change (relative to vehicle control = 1, protein TB427.05.520 STOMATIN-LIKE PROTEIN, PUTATIVE) was 1. The fold change (relative to vehicle control = 1, protein TB427.06.2550 RNA-BINDING PROTEIN, PUTATIVE) was 1.2, the fold change (relative to vehicle control = 1, protein TB427.06.3650 ADP-RI[…], PUTATIVE) was 0.91 and the fold change (relative to vehicle control = 1, protein TB427.06.3860 HY[…], CONSERVED) was 0.97. For the same compound, the fold change (relative to vehicle control = 1, protein TB427.07.2340 40S RIBOSOMAL PROTEIN S15, PUTATIVE) was 0.87, the fold change (relative to vehicle control = 1, protein TB427.07.2570 MRNA […], PUTATIVE) was 0.63 and the fold change (relative to vehicle control = 1, protein TB427.07.4180 FATTY ACID ELONGASE, PUTATIVE) was 0.92. It also gave a fold change (relative to vehicle control = 1, protein TB427.07.7500 THYMINE-7-HYDROXYLASE, PUTATIVE) of 0.88, a fold change (relative to vehicle control = 1, protein TB427.08.3150 T-COMPLEX PROTEIN 1, GAMMA SUBUNIT, PUTATIVE) of 0.99 and a fold change (relative to vehicle control = 1, protein TB427.08.3490 HY[…], CONSERVED) of 0.95. For the same compound, the fold change (relative to vehicle control = 1, protein TB427.08.5460 FLAGELLAR CALCIUM-BINDING PROTEIN) was 0.72, the fold change (relative to vehicle control = 1, protein TB427.08.6110 HY[…], CONSERVED) was 0.82 and the fold change (relative to vehicle control = 1, protein TB427.10.11930 NAD OR NADP DEPENDENT OXIDOREDUCTASE, PUTATIVE) was 0.78. It also gave a fold change (relative to vehicle control = 1, protein TB427.10.12510 P-TYPE H+-ATPASE, PUTATIVE) of 1, a fold change (relative to vehicle control = 1, protein TB427.10.13110 DYNEIN LIGHT CHAIN, PUTATIVE) of 0.88 and a fold change (relative to vehicle control = 1, protein TB427.10.13880 HY[…], CONSERVED) of 0.88. It also gave a fold change (relative to vehicle control = 1, protein TB427.10.14140 PYRUVATE KINASE 1) of 0.93, a fold change (relative to vehicle control = 1, protein TB427.10.14910 SA[…] GLYCOPROTEIN, PUTATIVE) of 0.83 and a fold change (relative to vehicle control = 1, protein TB427.10.15180 […] PROTEIN, PUTATIVE) of 1.2. It also gave a fold change (relative to vehicle control = 1, protein TB427.10.2350 PYRUVATE DEH[…] E3 BINDING PROTEIN, PUTATIVE) of 1, a fold change (relative to vehicle control = 1, protein TB427.10.4940 NUCLEAR DBF2-RELATED KINASE) of 0.8 and a fold change (relative to vehicle control = 1, protein TB427.10.7630 HY[…], CONSERVED) of 0.97. It also gave a fold change (relative to vehicle control = 1, protein TB427.10.9800 60S RIBOSOMAL PROTEIN L22) of 0.82, a fold change (relative to vehicle control = 1, protein TB927.10.13360 […] TU, PUTATIVE) of 0.96 and a fold change (relative to vehicle control = 1, protein TB927.1.2330 BETA TUBULIN) of 0.96. For the same compound, the fold change (relative to vehicle control = 1, protein TB927.1.2400 ALPHA TUBULIN) was 0.96, the fold change (relative to vehicle control = 1, protein TB927.10.3280 60S RIBOSOMAL PROTEINS L38, PUTATIVE) was 0.99 and the fold change (relative to vehicle control = 1, protein TB927.10.4180 TFIIF-[…] PHOSPHATASE, PUTATIVE) was 0.97. The fold change (relative to vehicle control = 1, protein TB927.10.4690 DYNEIN LIGHT CHAIN, PUTATIVE) was 0.9, the fold change (relative to vehicle control = 1, protein TB927.10.5330 40S RIBOSOMAL PROTEIN S18, PUTATIVE) was 0.74 and the fold change (relative to vehicle control = 1, protein TB927.10.6670 DYNEIN LIGHT CHAIN, PUTATIVE) was 0.92. The fold change (relative to vehicle control = 1, protein TB927.2.2440 […]-ATPASE SUBUNIT 6) was 2.27, the fold change (relative to vehicle control = 1, protein TB927.3.1120 GTP-BINDING NUCLEAR PROTEIN RTB2, PUTATIVE) was 0.9 and the fold change (relative to vehicle control = 1, protein TB927.3.3490 HIGH MOBILITY GROUP PROTEIN, PUTATIVE) was 0.89. It also gave a fold change (relative to vehicle control = 1, protein TB927.3.4360 40S RIBOSOMAL PROTEIN S15A, PUTATIVE) of 1.3, a fold change (relative to vehicle control = 1, protein TB927.4.4650 […] SYNTHASE, PUTATIVE) of 0.72 and a fold change (relative to vehicle control = 1, protein TB927.5.1930 HY[…], CONSERVED) of 0.83. For the same compound, the fold change (relative to vehicle control = 1, protein TB927.6.4140 PAR[…] COMPONENT, PUTATIVE) was 0.9, the fold change (relative to vehicle control = 1, protein TB927.7.2500 […] SUBUNIT 1) was 0.91 and the fold change (relative to vehicle control = 1, protein TB927.7.4500 HY[…], CONSERVED) was 0.87. It also gave a fold change (relative to vehicle control = 1, protein TB927.8.1510 ATP-DEPENDENT DEAD/H RNA HELICASE, PUTATIVE) of 1, a fold change (vs vehicle control, protein TB09.160.3710 PRO[…] NUCLEAR ANTIGEN (PCNA), PUTATIVE) of 0.94 and a fold change (vs vehicle control, protein TB11.01.4370 HY[…], CONSERVED) of 0.98. It also gave a fold change (vs vehicle control, protein TB427TMP.01.8510 T-COMPLEX PROTEIN 1, ALPHA SUBUNIT, PUTATIVE) of 0.9, a fold change (vs vehicle control, protein TB427.01.1670 HY[…], CONSERVED) of 0.93 and a fold change (vs vehicle control, protein TB427.03.4750 AMINOPEPTIDASE, PUTATIVE) of 0.96. The fold change (vs vehicle control, protein TB427.05.3170 RIBOSE-PHOSPHATE PYROPHOSPHOKINASE, PUTATIVE) was 0.92, the fold change (vs vehicle control, protein TB427.06.1070 HY[…], CONSERVED) was 0.95 and the fold change (vs vehicle control, protein TB427.06.4890 S-ADENOSYL[…], PUTATIVE) was 0.98. The fold change (vs vehicle control, protein TB427.08.3660 PROTEIN TRANSPORT PROTEIN SEC23) was 0.95, the fold change (vs vehicle control, protein TB427.10.10980 HEAT SHOCK PROTEIN 83) was 0.99 and the fold change (vs vehicle control, protein TB427.10.11760 PUMILIO/PUF RNA BINDING PROTEIN 6) was 0.91. For the same compound, the fold change (vs vehicle control, protein TB427.10.14550 ATP-DEPENDENT DEAD/H RNA HELICASE, PUTATIVE) was 0.99, the fold change (vs vehicle control, protein TB427.10.2290 CHAPERONE PROTEIN DNAJ, PUTATIVE) was 0.93 and the fold change (vs vehicle control, protein TB927.5.1630 HY[…], CONSERVED) was 0.91. For the same compound, the fold change (vs vehicle control, protein TB927.6.4980 40S RIBOSOMAL PROTEIN S14) was 1.1.
